Values of other authors as cited in patent publication US20110207819A1, “Fat Emulsion for Artificially Feeding Seriously Ill Intensive Care Patients” (B. BRAUN MELSUNGEN AG, priority 2008, published 2011).

Tested on: CIP/CIM
Settings: intensified insulin therapy; intensive care patients

For insulin, which “decrease of the incidence of CIP/CIM” value is on record?
The value was 44%.
